How the values were obtained:
ZIKV [1] = test: Binding of Hc-CATH to ZIKV (ELISA); set-up: species or system ZIKV strain PRVABC59; conditions: plates coated with 0.25 μM peptide, 1 × 10^6 PFU ZIKV, absorbance at 450 nm
Method: (§1) Figure 8 Hc-CATH directly inactivates ZIKV particles by disrupting viral membrane.A, schematic diagram of B–G (Hc-CATH-Vero-pre). B–G, direct inactivation of ZIKV by Hc-CATH. ZIKVs (MOI = 1) were incubated with Hc-CATH (2.5 μM), AC5 (2.5 μM), LL-37 (2.5 μM), or PBS (peptide solvent) at 37 °C for 2 h, and then the ZIKV–PBS mixture and ZIKV–peptide mixture were centrifugated at 100,000g for 70 min. The pellets were washed with PBS and centrifugated at 100,000g for 70 min again. The pellets were resuspended in PBS, added to Vero cells, and incubated for 2 h. Cells were washed with PBS and cultured in fresh DMEM containing 2% FBS. After culture at 37 °C for 48 h, the intracellular ZIKV RNA (B), NS3 protein (C and D), E protein level (E, the scale bar represents 50 μm), and extracellular ZIKV titer (F and G) were tested by qPCR, Western blot, immunofluorescence staining, and plaque-forming assay, respectively. H, binding of Hc-CATH to ZIKV. High-affinity binding plates were coated with 0.25 μM of Hc-CATH, BSA, AC5, or LL-37. Then, 1 × 10^6 PFU of ZIKV was added and incubated. […] Absorbance at 450 nm was measured after reactions were stopped using 0.5 M sulfuric acid. […] After the residual RNase was inactivated, the undigested genomic RNA in the intact ZIKV particles was extracted and quantified by testing the genes of PrM, E, and Cap proteins, respectively. ∗∗p < 0.01 and ∗∗∗p < 0.001. […]

ZIKV [2] = test: Susceptibility of A549 cells to ZIKV (peptide pretreatment); assay type: cell-based, ZIKV strain PRVABC59; conditions: 1.25, 2.5, and 5 μM, 2 h before ZIKV MOI = 1; 24 h; Western blot
Method: Figure 4 Hc-CATH downregulates AXL in A549 cell.A, schematic diagram of B and C. B, A549 cells were seeded in 24-well plates (5 × 10^4 cells/well) and cultured in DMEM containing 2% FBS. Hc-CATH (1.25, 2.5, and 5 μM) or same volume of PBS (peptide solvent) was added to cells and incubated at 37 °C for 24 h. The level of AXL was tested by Western blot. C, A549 cells were seeded in 8-well cover slip chambers (5 × 10^4 cells/well) and cultured in DMEM containing 2% FBS. Hc-CATH (1.25, 2.5, and 5 μM) or PBS was added to cells and incubated at 37 °C for 24 h. The level of AXL was tested by immunofluorescence staining. The scale bar represents 50 μm. D, schematic diagram of E and G. E and G, A549 cells were seeded in 24-well plates (5 × 10^4 cells/well) and cultured in DMEM containing 2% FBS. Hc-CATH (1.25, 2.5, and 5 μM) or PBS was added to cells and incubated at 37 °C for 2 h. Cells were washed with PBS and incubated with ZIKV (MOI = 1). After incubation at 37 °C for 2 h, cells were washed with PBS and cultured in DMEM containing 2% FBS.
Vero, A549, or U251 cells were incubated with peptide or PBS at 37 °C for 2 h. […]
The effect of Hc-CATH on AXL was further confirmed in A549 and U251 cells. A549 or U251 cells were incubated with Hc-CATH (1.25, 2.5, and 5 μM) or PBS at 37 °C for 24 h, and the level of AXL was detected by WB and IF, respectively. […]

ZIKV [3] = test: Direct inactivation of ZIKV particles (virus pre-incubated with peptide); assay type: cell-based, ZIKV strain PRVABC59; conditions: ZIKV incubated with 2.5 μM peptide at 37 °C for 2 h, pelleted, added to Vero cells, 48 h; RNA, NS3, E protein, titer
Method: as §1

KFFKRLLKSVRRAVKKFRKKPRLIGLSTLL [Hc-CATH, cathelicidin antimicrobial peptide identified from the sea snake Hydrophis cyanocinctus]
binding to ZIKV (ZIKV [1]): stronger binding affinity with ZIKV as compared with bovine serum albumin
susceptibility of A549 cells to ZIKV (NS3 protein) (ZIKV [2]): decreased the susceptibility
direct inactivation of ZIKV particles (ZIKV [3]): directly inactivated viral particles

From PMC9530963, “A cathelicidin antimicrobial peptide from Hydrophis cyanocinctus inhibits Zika virus infection by downregulating expression of a viral entry factor” (The Journal of Biological Chemistry, 2022)
